Columns and labels:
[1] = biological target: T1, recombinant native mVDAC1 (Mus musculus, UniProt Q60932); experiment: VDAC channel recording in planar lipid bilayer (PLB); assay type: biochemical; conditions: RuR; PLB, voltage stepped 0 mV to −20 mV; mean±SD, n=9
T1 construct: made in house; host or cells: yeast (purified from mitochondria of yeast expressing mVDAC1)
Procedure: (§1) Native and mutated mVDAC1 were extracted with lauryldimethylamine N-oxide (LDAO) from mitochondria isolated from yeast expressing various VDACs, and purified by chromatography on hydroxyapatite followed by carboxymethyl (CM)-cellulose where LDAO was replaced by β-OG (β-octylglucoside).
(§2) Reconstitution of purified VDAC into a planar lipid bilayer (PLB) multi-channel current recording and data analyses were carried as follows. Briefly, PLB were prepared from soybean asolactin dissolved in n-decane (50 mg/ml) in a chamber containing 10 mM HEPES/KOH pH 7.4 and 0.5 or 1M NaCl (cis/trans). Only PLBs with a resistance greater than 100 GΩ were used. Purified VDAC (about 1 ng) was added to the chamber defined as the cis side. After one or a few channels inserted into the PLB, excess protein was removed by perfusion of the cis chamber with 20 volumes of a solution (with the same composition as before perfusion), in order to prevent further protein incorporation. Currents were recorded under voltage-clamp mode using a Bilayer Clamp amplifier (Warner Instrument, USA). The currents were measured with respect to the trans side of the membrane (ground). The currents were low-pass filtered at 1 kHz, using a Bessal filter (Frequency Devices, USA) and digitized on-line using a Digidata 1200 interface board and pCLAMP 6 software (Axon Instruments). Sigma Plot 2000 scientific software was used for data analyses. Experiments were performed at 23-25° C.
(§3) FIG. 1A: Purified recombinant native or E72Q-mutated mVDAC1 was reconstituted into a PLB (planar lipid bilayer) in symmetrical solutions of 0.5 M NaCl. Currents through VDAC1 channel in response to a voltage step from zero to −20 mV were recorded before and 5 min after the addition of HK-I (28.6 mU/ml). The dashed lines indicate the zero-current level. […] FIG. 1C: Cytochrome c release was assayed, using a monoclonal anti-cytochrome c antibody, in the absence or the presence of HK-I (1 U/ml), chymotrypsin-treated HK-I (1 U/ml) or CsA (10 micro M).
(§4) RuR, known to interact with several Ca^2+ binding proteins and to inhibit Ca^2+ transport in mitochondria, inhibited channel activity of native but not of E72Q-mutated VDAC1 (FIG. 5E). Purified recombinant native and E72Q-mVDAC1 variant were reconstituted into a planar lipid bilayer (PLB) and the currents produced in response to voltages stepped from a holding potential of 0 mV to −20 mV were recorded. […] The level of inhibition calculated from […] different experiments was 89.2±2.8% (mean±SD, n=9). In contrast, the channel activity of E72Q-mVDAC1 was not inhibited by RuR in all ten experiments.

E72Q-mVDAC1 = biological target: T2, E72Q-mVDAC1 (Mus musculus, UniProt Q60932, E72Q); experiment: as above; assay type: biochemical; conditions: PLB, 0 mV to −20 mV; all ten experiments
T2 construct: made in house; host or cells: yeast (purified from mitochondria of yeast expressing mutated mVDAC1)
T2 sequence (Q60932 14-296 E72Q limits assumed): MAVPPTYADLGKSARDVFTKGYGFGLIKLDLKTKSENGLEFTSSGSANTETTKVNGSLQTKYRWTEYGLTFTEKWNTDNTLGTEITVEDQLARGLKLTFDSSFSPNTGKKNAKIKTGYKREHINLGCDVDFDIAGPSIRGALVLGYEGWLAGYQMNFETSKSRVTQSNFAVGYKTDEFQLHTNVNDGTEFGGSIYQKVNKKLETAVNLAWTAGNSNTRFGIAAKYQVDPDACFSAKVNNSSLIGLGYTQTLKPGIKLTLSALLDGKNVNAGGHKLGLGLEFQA
Procedure: as §1, §2, §3, §4

U937 cells = experiment: Apoptotic cell death of U937 cells transfected with native or mutated mVDAC1, with/without RuR (acridine orange/ethidium bromide staining); assay type: cell-based, human
Procedure: Logarithmically-growing U937 cells were resuspended in RPMI 1640 supplemented with 10% FCS, 100 U/ml penicillin and […] streptomycin at a concentration of 2.5×10^7 cells/ml. Cells were transfected to express rat or murine VDAC1 using the vectors pEGFP, pEGFP-VDAC1, pEGFP-E72Q-mVDAC1, pE-mVDAC1 or pE-E72Q-mVDAC1. Transfection of the U937 cells was performed by electroporation with a single pulse from a Bio-Rad micropulser II with a capacitance extender unit (200 V, […]). Cells were incubated on ice for 10 min before and after transfection, and then resuspended in 20 ml of RPMI 1640 supplemented with 10% FCS, 1 mM l-glutamine, 100 U/ml penicillin and […] streptomycin. […] GFP-positive cells were viewed under a microscope using a blue filter.
Cells were plated at a density of 5.4×10^4 cells/cm^2 in 24-well plates, washed once with PBS and placed in serum-free medium. Cells were then incubated with or without RuR or Ru360. Cells were also treated with […] staurosporine (STS) to induce apoptosis and analyzed for viability 3, 5 and 7 hrs after STS addition. Treatments with curcumin (120 μM) or As2O3 (20 μM) were carried out for 48 hrs.
Fifty six (56) hr after transfection, cells were exposed for 20 hr to RuR (1 μM) and cell viability was analyzed using acridine orange/ethidium bromide staining. In each independent experiment, approximately 250 cells were counted for each including early and late apoptotic cells. Data shown in FIG. 5 and Table 2 are the mean±SEM (n=3).

mitochondrial bound HK-I = biological target: T3, mitochondrial bound HK-I (Rattus norvegicus, UniProt P05708); experiment: Detachment of mitochondria-bound HK-I; assay type: biochemical; conditions: rat brain mitochondria; HK-I activity in the supernatant
T3 construct: from tissue; host or cells: rat brain mitochondria
T3 sequence (P05708 1-918): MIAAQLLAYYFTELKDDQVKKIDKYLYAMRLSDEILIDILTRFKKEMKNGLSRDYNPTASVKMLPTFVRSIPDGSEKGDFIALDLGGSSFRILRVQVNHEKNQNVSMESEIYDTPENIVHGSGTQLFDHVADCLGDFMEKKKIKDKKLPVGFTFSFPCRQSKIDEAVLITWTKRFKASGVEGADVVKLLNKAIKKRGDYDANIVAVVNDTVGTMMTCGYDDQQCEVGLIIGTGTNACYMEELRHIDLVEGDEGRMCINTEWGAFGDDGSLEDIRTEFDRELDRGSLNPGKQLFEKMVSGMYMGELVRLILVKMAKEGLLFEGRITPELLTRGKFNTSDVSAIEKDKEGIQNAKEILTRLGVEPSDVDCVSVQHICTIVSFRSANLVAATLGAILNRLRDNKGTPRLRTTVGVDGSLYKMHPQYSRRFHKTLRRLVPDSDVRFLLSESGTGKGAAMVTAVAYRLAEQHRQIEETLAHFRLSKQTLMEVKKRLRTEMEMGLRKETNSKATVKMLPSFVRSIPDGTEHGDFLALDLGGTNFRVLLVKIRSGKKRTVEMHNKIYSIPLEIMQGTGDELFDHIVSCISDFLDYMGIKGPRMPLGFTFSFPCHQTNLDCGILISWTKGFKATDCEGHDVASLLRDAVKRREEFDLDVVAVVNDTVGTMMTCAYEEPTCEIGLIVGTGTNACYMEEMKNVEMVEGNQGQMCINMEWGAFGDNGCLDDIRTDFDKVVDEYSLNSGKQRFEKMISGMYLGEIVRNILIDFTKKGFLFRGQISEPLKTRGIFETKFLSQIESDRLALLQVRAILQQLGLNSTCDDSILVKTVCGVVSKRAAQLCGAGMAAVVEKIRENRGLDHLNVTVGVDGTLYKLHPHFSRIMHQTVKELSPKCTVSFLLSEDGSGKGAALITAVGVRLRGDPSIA

[2] = tested on: permeability transition pore (PTP); experiment: PTP opening monitored by Ca2+ accumulation and mitochondrial swelling; assay type: biochemical, rat; conditions: LP1 0.1 mM or 0.3 mM; brain HK-I 0.25 U/ml pre-incubated 10 min with LP1
Procedure: Ca^2+ uptake by freshly prepared rat liver mitochondria (0.5 mg/ml) was assayed for 1 to 20 minutes at 30° C. in the presence of 225 mM mannitol, 75 mM sucrose, 120 μM CaCl2 (containing 3×10^4 cpm/nmol [^45Ca^2+]), 5 mM HEPES/KOH, 5 mM succinate and 0.1 mM Pi, pH 7.0. Uptake of ^45Ca^2+ was terminated by rapid Millipore filtration followed by a wash with 5 ml of 150 mM KCl.
Ca^2+-induced mitochondria large amplitude swelling was assayed in freshly-prepared mitochondria under the same conditions as for Ca^2+ accumulation, except that the temperature was 24° C. Cyclosporine A (CsA)-sensitive mitochondrial swelling was initiated upon addition of Ca^2+ (0.2 mM) to the sample. Absorbance changes at 520 nm were monitored every 15-20 sec with an Ultraspec 2100 spectrophotometer.
The failure of non-binding species of HK, such as yeast HK, or trypsin- or chymotrypsin-treated HK-I (FIG. 2D) to prevent PTP opening, confirmed the specificity of the HK-I effect, and of the requirement of the HK-I N-terminal region for its interaction with VDAC.
Mitochondrial swelling was assayed in the absence (control ●) or the presence of HK-I (gray ●) and in presence HK-I pre-incubated with peptide LP1. Mitochondrial swelling was assayed as in FIG. 2 in the absence and the presence of peptide LP1 (0.1 mM or 0.3 mM), brain HK-I (0.25 U/ml) or with HK-I pre-incubated for 10 min with LP1. […]

T1 sequence (Q60932 14-296 limits assumed): as the sequence (Q60932 14-296 E72Q limits assumed) above, with Q59E counted along it

detachment of mitochondria-bound HK-I (mitochondrial bound HK-I) | Compound | level of inhibition of channel activity [1] [%] | inhibition of channel activity by RuR (E72Q-mVDAC1) | Apoptotic cells, % +RuR (U937 cells; Control (non-transfected) U937 cells, RuR 1 μM) [%] | effect on apoptotic death in control or plasmid-transfected cells (U937 cells; RuR) | protective effect of RuR on VDAC1 over-expression-induced cell death (U937 cells; cells expressing E72Q-mVDAC1, E72Q-mVDAC1-GFP or E65Q-mVDAC1) | increase in the total level of VDAC1 protein (U937 cells; cells expressing native mVDAC1 exposed to RuR) | protection against apoptotic cell death (U937 cells; cells over-expressing VDAC1 or VDAC1-GFP, 1 μM RuR for 18 hr or 5 μM RuR for 5 hr) | effect on HK-I prevention of PTP opening [2]
 | N.N.N.N.N.N.N.N.N.N.N.N.N.N.[Cl-].[Cl-].[Cl-].[Cl-].[Cl-].[Cl-].[O-2].[O-2].[Ru+3].[Ru+3].[Ru+4] [RuR, ruthenium red] | 89.2±2.8 | not inhibited | 9.1 ± 2.1 | had no effect or even slightly increased apoptotic death | not observed | over 5 fold | 64-72% | 
able to release mitochondrial bound HK-I | WTEYGLTFTEKWNTD [Peptide LP1, 15 amino acid peptide derived from the first cytosolic β-loop of VDAC1, amino acids 63-78] |  |  |  |  |  |  |  | eliminates the HK-I prevention of PTP opening
